Results on 27 molecules are retold here after US20100029620A1, “SUBSTITUTED TRIAZOLINE, TETRAZOLONE AND IMIDAZOLONE DERIVATIVES FOR USE AS A MEDICINE” (JANSSEN PHARMACEUTICA N.V., priority 2004, published 2010).

The target of experiment [1] is T1, human adrenergic-α2A receptor (Homo sapiens, UniProt P08913).
T1 construct: expressed in transfected cells; membrane preparation
T1 sequence (P08913 1-465): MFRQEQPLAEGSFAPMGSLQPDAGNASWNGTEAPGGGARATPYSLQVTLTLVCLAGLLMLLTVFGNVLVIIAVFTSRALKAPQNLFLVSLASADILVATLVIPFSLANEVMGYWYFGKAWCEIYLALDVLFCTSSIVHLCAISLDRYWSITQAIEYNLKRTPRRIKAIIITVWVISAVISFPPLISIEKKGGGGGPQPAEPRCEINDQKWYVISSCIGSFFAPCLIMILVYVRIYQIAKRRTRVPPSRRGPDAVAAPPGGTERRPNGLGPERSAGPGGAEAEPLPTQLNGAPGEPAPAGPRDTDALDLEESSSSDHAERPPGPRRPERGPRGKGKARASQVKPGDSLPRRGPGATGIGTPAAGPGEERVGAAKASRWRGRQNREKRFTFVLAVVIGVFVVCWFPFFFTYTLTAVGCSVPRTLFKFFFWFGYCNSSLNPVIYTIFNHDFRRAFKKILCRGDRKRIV
The experiment in a line: Radioligand binding experiment for α2A-adrenoceptor ([3H]-raulwolscine competition, CHO cell membranes). Particulars: [3H]raulwolscine 1 nM, membranes of CHO cells transfected with human α2A receptor; read-out: pIC50 α2A (converted). In outline: (§1)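 CHO cell membranes stably expressing human α2A, α2B or α2C receptor were incubated with 1 nM [3H]-raulwolscine ± test compound, 60 min at 25° C in glycylglycine 25 mM, pH 8.0, then filtered and counted. Nonspecific binding: 1 μM oxymetazoline (α2A, α2B) or 1 μM spiroxatrine (α2C). pIC50 from nonlinear regression of % total binding.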

The target in experiment [2] is T2, human adrenergic-α2B receptor (Homo sapiens, UniProt P18089).
T2 construct: expressed in transfected cells; membrane preparation
T2 sequence (P18089 1-450): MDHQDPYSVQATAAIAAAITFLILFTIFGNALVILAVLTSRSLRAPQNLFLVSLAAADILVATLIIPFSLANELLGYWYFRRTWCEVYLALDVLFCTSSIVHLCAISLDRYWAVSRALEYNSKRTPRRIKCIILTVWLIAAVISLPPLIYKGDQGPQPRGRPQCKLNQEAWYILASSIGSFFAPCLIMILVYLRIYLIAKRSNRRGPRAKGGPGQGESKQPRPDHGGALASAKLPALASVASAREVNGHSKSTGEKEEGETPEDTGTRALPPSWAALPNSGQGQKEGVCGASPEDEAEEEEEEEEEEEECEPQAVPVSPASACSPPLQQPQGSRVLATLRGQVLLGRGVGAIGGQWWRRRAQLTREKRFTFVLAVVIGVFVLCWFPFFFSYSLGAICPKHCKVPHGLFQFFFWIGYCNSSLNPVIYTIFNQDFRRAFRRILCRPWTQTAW
Briefly: Radioligand binding experiment for α2B-adrenoceptor ([3H]-raulwolscine competition, CHO cell membranes). The following applies: [3H]raulwolscine 1 nM, membranes of CHO cells transfected with human α2B receptor; read-out: pIC50 α2B (converted). In outline: as §1

The target in experiment [3] is T3, human adrenergic-α2C receptor (Homo sapiens, UniProt P18825).
T3 construct: expressed in transfected cells; membrane preparation
T3 sequence (P18825 1-462): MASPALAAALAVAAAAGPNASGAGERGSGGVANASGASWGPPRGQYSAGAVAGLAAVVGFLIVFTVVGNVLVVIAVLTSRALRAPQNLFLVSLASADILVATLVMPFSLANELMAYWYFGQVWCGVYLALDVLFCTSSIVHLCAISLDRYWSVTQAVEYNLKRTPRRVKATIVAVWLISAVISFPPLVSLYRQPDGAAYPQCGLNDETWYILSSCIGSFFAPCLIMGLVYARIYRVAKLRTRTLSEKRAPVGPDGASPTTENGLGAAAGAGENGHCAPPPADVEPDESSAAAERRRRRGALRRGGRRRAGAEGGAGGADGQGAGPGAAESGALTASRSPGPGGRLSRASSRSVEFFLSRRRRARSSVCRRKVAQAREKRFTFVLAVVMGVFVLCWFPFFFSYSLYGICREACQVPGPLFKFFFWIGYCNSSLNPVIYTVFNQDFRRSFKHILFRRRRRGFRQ
Briefly: Radioligand binding experiment for α2C-adrenoceptor ([3H]-raulwolscine competition, CHO cell membranes). Particulars: [3H]raulwolscine 1 nM, membranes of CHO cells transfected with human α2C receptor; for IC50: read-out: pIC50 α2C (converted). The method in brief: as §1

Consider `O=c1n(-c2ccc3c(c2)CCN(CC2CCCCC2)C3)cnn1CCNCCOc1ccccc1` [compound 98], for which the IC50 in experiment [1] is 501 nM; in experiment [2], 251 nM; in experiment [3], 20 nM.
For the molecule `CN1CCCN(Cc2ccc(-n3cnn(CC4CCN(CCOc5ccccc5)CC4)c3=O)cc2)CC1` [compound 61], the IC50 is 63.1 nM in experiment [1], 10 nM in experiment [2] and 1.26 nM in experiment [3].
The matching figures for `C/C(=C\c1ccccc1)CN1CCC(n2cnn(CCN3CCCCC3)c2=O)CC1` [compound 79]: 398 nM, 631 nM and 31.6 nM.
Take `C/C(=C\c1ccccc1)CN1CCC(n2cnn(-c3ccc(CN)cc3)c2=O)CC1` [compound 33]: the IC50 in experiment [1] is 15.8 nM; in experiment [2], 63.1 nM; in experiment [3], 15.8 nM.
As to `COc1ccc(N2CCN(c3ccc(-n4cnn(C(C)C(C)NCCOc5ccccc5)c4=O)cc3)CC2)cc1` (stereo not drawn) [compound 10], the IC50 is 631 nM in experiment [1], 501 nM in experiment [2] and 15.8 nM in experiment [3].
The matching figures for `O=c1n(-c2ccc(CNCCN3CCCCC3)cc2)cnn1CCNCCOc1ccccc1` [compound 95]: 15.8 nM, 126 nM and 1.58 nM.
For the molecule `C/C(=C\c1ccccc1)CN1CCC(n2cnn(CCNCCOc3ccccc3)c2=O)CC1` [compound 29], the IC50 in experiment [1] is 100 nM; in experiment [2], 126 nM; in experiment [3], 3.98 nM.
Turning to `O=c1n(CCN2CCOCC2)cnn1CC1CCN(CCOc2ccccc2)CC1` [compound 71], the IC50 in experiment [1] was 251 nM; in experiment [2] it was 251 nM; in experiment [3], 20 nM.
For `O=c1n(-c2ccc(N3CCCCC3)cc2)cnn1CC1CCN(CCOc2ccccc2)CC1` [compound 63], the IC50 in experiment [1] is 158 nM; in experiment [2], 31.6 nM; in experiment [3], 5.01 nM.
The matching figures for `O=c1n(-c2ccc(NCCN3CCCC3)cc2)cnn1CCNCCOc1ccccc1` [compound 88]: 39.8 nM, 39.8 nM and 2 nM.
`CN1CCCN(c2ccc(-n3cnn(CC4CCN(CCOc5ccccc5)CC4)c3=O)cc2)CC1` [compound 60]: the IC50 in experiment [1] was 39.8 nM; in experiment [2] it was 5.01 nM; in experiment [3], 2 nM.
Consider `O=C(Cn1cnn(CC2CCN(CCOc3ccccc3)CC2)c1=O)Nc1ccc(F)cc1` [compound 47], for which the IC50 in experiment [1] is 79.4 nM; in experiment [2] it was 39.8 nM; in experiment [3], 3.98 nM.
For the molecule `O=c1n(-c2ccc(NCc3ccc(F)cc3)cc2)cnn1CC1CCN(CCOc2ccccc2)CC1` [compound 48], the IC50 in experiment [1] was 200 nM; in experiment [2] it was 25.1 nM; in experiment [3], 3.16 nM.
The matching figures for `O=c1n(-c2ccc(CNCc3ccc(F)cc3)cc2)cnn1CCNCCOc1ccccc1` [compound 91]: 31.6 nM, 79.4 nM and 5.01 nM.
The matching figures for `CCOC(=O)C1CCN(Cc2ccc(-n3cnn(CCNCCOc4ccccc4)c3=O)cc2)CC1` [compound 19]: 63.1 nM, 251 nM and 3.16 nM.
On to `O=c1n(-c2ccc(N3CCN(Cc4ccccc4)CC3)cc2)cnn1CC1CCN(CCOc2ccccc2)CC1` [compound 54], for which the IC50 is 158 nM in experiment [1], 31.6 nM in experiment [2] and 15.8 nM in experiment [3].
`C/C(=C\c1ccccc1)CN1CCC(n2cnn(CCNCCOc3ccccc3)c2=O)CC1` [compound 28]: the IC50 in experiment [1] was 126 nM; in experiment [2], 200 nM. For the same molecule, in experiment [3], the “pIC50 α2C” value turned out to be 8.4.
As for `O=c1n(-c2ccc(CN3CCC(N4CCCC4)CC3)cc2)cnn1CC1CCN(CCOc2ccccc2)CC1` [compound 68], the IC50 was 39.8 nM in experiment [1], 7.94 nM in experiment [2] and 2.51 nM in experiment [3].
As to `CN(CCNc1ccc(-n2cnn(CC3CCN(CCOc4ccccc4)CC3)c2=O)cc1)Cc1ccccc1` [compound 43], the results for the IC50 in experiment [1], in experiment [2] and in experiment [3] were 25.1 nM, 6.31 nM and 1.58 nM, respectively.
For `O=c1n(CCN2CCCCC2)cnn1CCNCCOc1ccccc1` [compound 16], the IC50 in experiment [1] is 158 nM; in experiment [2], 1580 nM; in experiment [3], 10 nM.
For the molecule `CN(C)CCNc1ccc(-n2cnn(CC3CCN(CCOc4ccccc4)CC3)c2=O)cc1` [compound 38], the IC50 in experiment [1] was 25.1 nM; in experiment [2] it was 3.98 nM; in experiment [3], 1.58 nM.
The matching figures for `C/C(=C\c1ccccc1)CN1CCC(n2cnn(-c3ccc(NCCN(C)C)cc3)c2=O)CC1` [compound 31]: 50.1 nM, 25.1 nM and 12.6 nM.
As to `CC(C)N1CCc2cc(-n3cnn(CCNCCOc4ccccc4)c3=O)ccc2C1` [compound 103], the IC50 in experiment [1] was 501 nM; in experiment [2] it was 794 nM; in experiment [3] it was 25.1 nM.
Regarding `COc1ccc(N2CCN(c3ccc(-n4cnn(CCNCCOc5ccccc5)c4=O)cc3)CC2)cc1` [compound 8], the IC50 in experiment [1] is 631 nM; in experiment [2], 158 nM; in experiment [3], 15.8 nM.
Taken in the same sequence, the figures for `NCc1ccc(-n2cnn(C3CCN(CCOc4ccccc4)CC3)c2=O)cc1` [compound 36] were 39.8 nM, 79.4 nM and 12.6 nM.
On to `O=c1n(-c2ccc(NCCN3CCOCC3)cc2)cnn1CC1CCN(CCOc2ccccc2)CC1` [compound 50], for which the results for the IC50 in experiment [1], in experiment [2] and in experiment [3] were 251 nM, 15.8 nM and 12.6 nM, respectively.
As to `C/C(=C\c1ccccc1)CN1CCC(n2cnn(Cc3ccc(CN)cc3)c2=O)CC1` [compound 32], the results for the IC50 in experiment [1], in experiment [2] and in experiment [3] were 126 nM, 50.1 nM and 12.6 nM, respectively.
